The results in this text go back to patent US20200306337A1, “Bioactive Metabolities Encoded by the Human Microbiome Using Primary Sequence Alone” (The Rockefeller University, priority 2017, published 2020).

Non-standard residues stand in square brackets, D forms with d. Residues, ends and D or L forms follow the SMILES beside them. *: point of attachment. Tetradecanoyl(3S-OH) = CCCCCCCCCCC[C@H](O)CC(=O)*

The subject of assay [1] is MRSA clinical isolates. Type of assay: cell-based, S. aureus. The method, then: a) Standard assays. Minimal inhibitory concentration (MIC) assays were performed in duplicate in 96-well microtiter plates based on the protocol recommended by Clinical and Laboratory Standards Institute (CLSI, 2012). DMSO stock solutions of syn-BNPs (12.8 mg/mL) were added to the first well in a row and serially diluted (2 fold per transfer) across the microtiter plate. The last well was reserved for a peptide-free control. Overnight cultures of bacteria were diluted 5,000-fold and 50 μL was used as an inoculum in each well. MIC values were determined by visual inspection after 18 h incubation (37° C., static growth).

Assay [2] has as its system MRSA USA300. Kind of assay: Two-dimensional carbenicillin-humimycin A synergy susceptibility assay. The assay is classed as cell-based, Staphylococcus aureus. On the procedure:
b) Synergy assays. Synergistic β-lactam-humimycin activities were assessed through a two-dimensional (2D) susceptibility assay. Two fold serial dilutions were carried out as described above. Carbenicillin (a β-lactam antibiotic) was diluted serially from left to right, and humimycin was diluted serially from top to bottom. The highest concentration tested for both antibiotics was 32 μg/mL. Fractional inhibitory concentration (FIC) is defined as the ratio of the apparent synergistic MIC divided by the MIC of the antibiotic measured alone.

`CCCCCCCCCCC[C@H](O)CC(=O)N[C@@H](Cc1ccc(O)cc1)C(=O)N[C@@H](CO)C(=O)N[C@H](Cc1ccc(O)cc1)C(=O)N[C@@H](Cc1ccccc1)C(=O)N[C@@H](C(=O)N[C@H](C(=O)N[C@H](C(=O)O)C(C)C)C(C)C)[C@H](C)O` [Humimycin A] ({Tetradecanoyl(3S-OH)}-YS[dY]F[dT]VV-OH; C-terminus assumed) had an MICs in assay [1] of 8 to 128 µg/mL. The “synergy with carbenicillin in inhibiting growth” value in assay [2] (FIC values ≤0.5 defines synergy, n=3) is given as “act synergistically”.

As to `CC1(C)S[C@@H]2[C@H](NC(=O)C(C(=O)O)c3ccccc3)C(=O)N2[C@H]1C(=O)O` (stereo partly shown) [carbenicillin], in assay [2] (Staphylococcus aureus, carbenicillin alone), the MIC – broadly, the lowest concentration that inhibits growth of the organism – worked out at 32 µg/mL. Further, the “MIC of carbenicillin in the presence of humimycin A” value in assay [2] (in the presence of 2 μg/mL humimycin A (0.25×MIC)) turned out to be 1 µg/mL.
